Columns and labels:
[1] = Inhibition of ACK1 D163E mutant in mouse BaF3 cells; assay type: cell-based
[2] = Inhibition of ACK1 R806Q mutant in mouse BaF3 cells; assay type: cell-based
Activated CDC42 kinase 1 [3] = target: T1, Activated CDC42 kinase 1 (Homo sapiens, UniProt Q07912); test: Inhibition of ACK1 (unknown origin)
Target sequence in this assay (Q07912 whole entry): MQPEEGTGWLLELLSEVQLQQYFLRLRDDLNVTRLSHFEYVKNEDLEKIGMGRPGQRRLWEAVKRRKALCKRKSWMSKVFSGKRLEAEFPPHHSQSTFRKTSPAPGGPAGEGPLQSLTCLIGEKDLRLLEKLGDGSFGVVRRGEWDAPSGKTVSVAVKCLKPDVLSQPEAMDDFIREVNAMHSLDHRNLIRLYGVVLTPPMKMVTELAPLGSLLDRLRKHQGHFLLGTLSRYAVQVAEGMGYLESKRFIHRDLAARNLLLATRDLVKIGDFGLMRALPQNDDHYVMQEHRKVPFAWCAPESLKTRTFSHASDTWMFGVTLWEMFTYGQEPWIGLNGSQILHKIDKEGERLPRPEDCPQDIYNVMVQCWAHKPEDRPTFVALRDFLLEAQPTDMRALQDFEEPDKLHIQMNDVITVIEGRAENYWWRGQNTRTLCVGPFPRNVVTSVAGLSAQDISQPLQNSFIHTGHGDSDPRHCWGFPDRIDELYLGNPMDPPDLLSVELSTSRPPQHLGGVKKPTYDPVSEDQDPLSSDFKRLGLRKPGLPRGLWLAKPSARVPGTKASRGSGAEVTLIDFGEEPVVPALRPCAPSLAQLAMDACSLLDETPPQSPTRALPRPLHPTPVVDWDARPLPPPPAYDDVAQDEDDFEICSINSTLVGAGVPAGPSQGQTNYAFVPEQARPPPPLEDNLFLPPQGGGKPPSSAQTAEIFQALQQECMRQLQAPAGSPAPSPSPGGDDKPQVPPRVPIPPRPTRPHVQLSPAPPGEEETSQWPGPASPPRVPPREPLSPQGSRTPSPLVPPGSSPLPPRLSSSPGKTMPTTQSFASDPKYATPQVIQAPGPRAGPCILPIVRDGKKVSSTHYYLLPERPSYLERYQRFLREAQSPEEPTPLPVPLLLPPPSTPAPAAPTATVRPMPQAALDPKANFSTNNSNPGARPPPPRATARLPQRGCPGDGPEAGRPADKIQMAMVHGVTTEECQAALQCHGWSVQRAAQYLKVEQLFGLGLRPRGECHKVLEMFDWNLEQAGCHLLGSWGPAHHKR

Activated CDC42 kinase 1 [4] = target: T1, Activated CDC42 kinase 1; test: Inhibition of ACK1 (unknown origin) at 10 uM relative to control
Target sequence in this assay (Q07912 whole entry, looked up): as the sequence (Q07912 whole entry) above

MDA-MB-157 = test: Antiproliferative activity against human MDA-MB-157 cells treated for 96 hrs by trypan blue exclusion assay; assay type: functional, cell-based; conditions: MDA-MB-157, 96 h

Row | SMILES | IC50 [1] [nM] | IC50 [2] [nM] | IC50 (Activated CDC42 kinase 1 [3]) [nM] | inhibition (Activated CDC42 kinase 1 [4]) [%] | other results
1 | CN1c2ccccc2C(=O)Nc2cnc(Nc3ccc(N4CCC(O)CC4)cc3)nc21 | 16 | 77 |  |  | 
2 | CNc1cc2c(Nc3cccc(Br)c3)ncnc2cn1 |  |  | 200 |  | 
3 | CCN(CC)CCNC(=O)c1c(C)[nH]c(/C=C2\C(=O)Nc3ccc(F)cc32)c1C |  |  |  | 33 | 
4 | CN1CCN(c2ccc(Nc3ncc(Cl)c(NC[C@H]4CCCO4)n3)cc2)CC1 |  |  |  |  | IC50 (MDA-MB-157): 480 nM
5 | COc1cc(N2CCN(C)CC2)ccc1Nc1ncc2c(n1)N(C)c1ccccc1C(=O)N2 | 38 | 113 |  |  | 
6 | COc1cc2ncnc(Nc3ccc(F)c(Cl)c3)c2cc1OCCCN1CCOCC1 |  |  |  | 77 | 
7 | C=CC(=O)Nc1cc(Nc2nccc(-c3cn(C)c4ccccc34)n2)c(OC)cc1N(C)CCN(C)C [OSIMERTINIB] |  |  | 71 |  | 

Further lines, with some results ahead:

Row | IC50 [1] [nM] | IC50 [2] [nM] | IC50 (Activated CDC42 kinase 1 [3]) [nM] | inhibition (Activated CDC42 kinase 1 [4]) [%] | SMILES | other results
8 |  |  | 33.6 |  | Cc1cc(Nc2ncc(Cl)c(Nc3ccccc3S(=O)(=O)C(C)C)n2)c(OC(C)C)cc1C1CCNCC1 [CERITINIB] | 
9 |  |  | < 20000 | 74 | CN1CC[C@H](c2c(O)cc(O)c3c(=O)cc(-c4ccccc4Cl)oc23)[C@H](O)C1 [ALVOCIDIB] | 
10 | 0.1 | 1.3 |  |  | Cc1nc(Nc2ncc(C(=O)Nc3c(C)cccc3Cl)s2)cc(N2CCN(CCO)CC2)n1 [DASATINIB] | 

Source: ChEMBL document CHEMBL5260853, “Small Molecules Targeting Activated Cdc42-Associated Kinase 1 (ACK1/TNK2) for the Treatment of Cancers” (J Med Chem, 2021)
